The values below come from PubChem BioAssay (NCI).

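Assay format: 96-well plates, 48-hour exposure. GI50: concentration for 50% inhibition of growth. TGI: total growth inhibition.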

Test systems include SF-295 CNS; HCC-2998 colon; SK-OV-3 ovarian; OVCAR-8 ovarian; SNB-75 CNS; COLO 205 colon; UACC-257 melanoma; NCI-H226 lung; A498 renal; LOX IMVI melanoma.
Assay in all cases: growth of human tumour cells (NCI), 48 h

Turning to `O=C(O)C[C@@H](Cl)[C@H](NC(=O)OCc1ccccc1)C(=O)O`, the TGI with SF-295 CNS, with HCC-2998 colon, in the assay on SK-OV-3 ovarian, in the assay with OVCAR-8 ovarian, with SNB-75 CNS and with COLO 205 colon was more than 100 µM each time. Moreover, the TGI in the assay with UACC-257 melanoma, in the assay on NCI-H226 lung, in the assay with A498 renal and in the assay on LOX IMVI melanoma was more than 100 µM each time.

Take `N#Cc1c(NCc2ccccc2)nc(NCc2ccccc2)c(C#N)c1-c1ccc(O)cc1`: the GI50 with SF-295 CNS is 27.1 µM; with HCC-2998 colon it was 39.5 µM; in the assay with SK-OV-3 ovarian, 34.5 µM; with OVCAR-8 ovarian, 58.1 µM; with SNB-75 CNS, 67.8 µM; in the assay with COLO 205 colon, 36.3 µM. Besides, the GI50 is 43.2 µM in the assay with UACC-257 melanoma, 14.3 µM in the assay with NCI-H226 lung, 24.9 µM in the assay with A498 renal and 16.7 µM in the assay on LOX IMVI melanoma. Besides, the TGI with SF-295 CNS, in the assay with HCC-2998 colon, in the assay on SK-OV-3 ovarian, in the assay on OVCAR-8 ovarian, in the assay on SNB-75 CNS and with COLO 205 colon was more than 100 µM in each case. Also, the TGI in the assay on UACC-257 melanoma is more than 100 µM; with NCI-H226 lung it was 67.1 µM; in the assay with A498 renal, 63.5 µM; with LOX IMVI melanoma, 41.4 µM.

Consider `Cc1c(-c2ccc(C3CCCCC3)cc2)nc2ccc(F)cc2c1C(=O)O`, for which the GI50 is 0.0881 µM in the assay on SF-295 CNS; 10.1 µM in the assay on HCC-2998 colon; more than 100 µM with SK-OV-3 ovarian; 0.123 µM in the assay on OVCAR-8 ovarian; 12.2 µM in the assay on SNB-75 CNS; 0.185 µM in the assay with COLO 205 colon. The GI50 is 4.79 µM in the assay on UACC-257 melanoma, 3.08 µM in the assay with NCI-H226 lung, more than 36.6 µM in the assay on A498 renal and 0.0512 µM with LOX IMVI melanoma. The TGI in the assay with SF-295 CNS, in the assay on HCC-2998 colon, with SK-OV-3 ovarian, with OVCAR-8 ovarian, in the assay with SNB-75 CNS and in the assay on COLO 205 colon was more than 100 µM each time. Further, the TGI in the assay on UACC-257 melanoma, in the assay on NCI-H226 lung, in the assay with A498 renal and in the assay on LOX IMVI melanoma was more than 100 µM throughout.

For `CCN1CCC(Nc2ccnc3cc(Cl)ccc23)CC1`, the GI50 with SF-295 CNS was 18 µM; in the assay with HCC-2998 colon, 33.3 µM; in the assay on SK-OV-3 ovarian it was more than 100 µM; in the assay with OVCAR-8 ovarian, 34.8 µM; with SNB-75 CNS, 18.4 µM; in the assay on COLO 205 colon, 12.5 µM. The GI50 in the assay on UACC-257 melanoma is 17 µM; with NCI-H226 lung, 39.1 µM; with A498 renal, 74.6 µM; with LOX IMVI melanoma, 26.1 µM. For the same molecule, the TGI with SF-295 CNS was 53.6 µM; in the assay on HCC-2998 colon it was more than 100 µM; in the assay with SK-OV-3 ovarian it was more than 100 µM; in the assay with OVCAR-8 ovarian, more than 100 µM; in the assay on SNB-75 CNS it was 74.8 µM; in the assay on COLO 205 colon it was 27.1 µM. For the same molecule, the TGI with UACC-257 melanoma is 32.3 µM; with NCI-H226 lung, more than 100 µM; in the assay with A498 renal it was more than 100 µM; in the assay on LOX IMVI melanoma it was more than 100 µM.

Regarding `C=C(CN1CCN(c2ccc(C(F)(F)F)cc2)CC1)c1ccc(C(=O)Nc2ccccc2N)cc1`, the GI50 in the assay with SF-295 CNS is 10.8 µM; with HCC-2998 colon, 30.2 µM; with SK-OV-3 ovarian, 12.1 µM; in the assay with OVCAR-8 ovarian it was 6.95 µM; in the assay on SNB-75 CNS it was 12.4 µM; with COLO 205 colon, more than 100 µM. In addition, the GI50 in the assay with UACC-257 melanoma was 2.39 µM; with NCI-H226 lung it was 7.51 µM; in the assay with A498 renal, 7.67 µM; with LOX IMVI melanoma it was 11.1 µM. For the same molecule, the TGI is more than 100 µM with SF-295 CNS; more than 100 µM in the assay with HCC-2998 colon; more than 100 µM in the assay with SK-OV-3 ovarian; more than 100 µM with OVCAR-8 ovarian; 51.8 µM in the assay on SNB-75 CNS; more than 100 µM in the assay with COLO 205 colon. In addition, the TGI in the assay on UACC-257 melanoma was more than 100 µM; in the assay on NCI-H226 lung, more than 60.5 µM; in the assay on A498 renal, 61.5 µM; in the assay on LOX IMVI melanoma it was more than 100 µM.

As for `COc1cc2c3cc1Oc1c(OC)c(OC)cc4c1C(=NCC4)Cc1ccc(cc1)Oc1cc(ccc1O)C[C@H]3N(C)CC2`, the TGI in the assay with SF-295 CNS is 43.3 µM; in the assay on HCC-2998 colon, 26.1 µM; with SK-OV-3 ovarian, more than 100 µM; with OVCAR-8 ovarian, 32 µM; in the assay on SNB-75 CNS, 40.2 µM; with COLO 205 colon, 26.3 µM. The TGI with UACC-257 melanoma came to 29.6 µM; with NCI-H226 lung it was 61.2 µM; in the assay on A498 renal, 36.7 µM; in the assay with LOX IMVI melanoma, 25.1 µM.

Take `O=C(CC1(O)C(=O)N(Cc2ccccc2)c2ccc(Cl)cc21)c1ccc(C(=O)NCC2CCC3(CC2)OOC2(CCCCC2)OO3)cc1` (stereo not given): the GI50 was 0.57 µM with SF-295 CNS; 1.31 µM in the assay with HCC-2998 colon; 3.48 µM with SK-OV-3 ovarian; 0.295 µM in the assay on OVCAR-8 ovarian; 1.35 µM with SNB-75 CNS; 0.626 µM in the assay on COLO 205 colon. Further, the GI50 in the assay with UACC-257 melanoma was 8.61 µM; in the assay with NCI-H226 lung, 1.72 µM; in the assay with A498 renal it was 1.77 µM; in the assay on LOX IMVI melanoma it was 0.0573 µM. Besides, the TGI is 1.34 µM with SF-295 CNS; 3.02 µM in the assay with HCC-2998 colon; more than 21.1 µM in the assay on SK-OV-3 ovarian; 0.758 µM in the assay with OVCAR-8 ovarian; 3.39 µM in the assay on SNB-75 CNS; 1.66 µM in the assay on COLO 205 colon. Moreover, the TGI with UACC-257 melanoma was more than 100 µM; in the assay with NCI-H226 lung, 9.06 µM; with A498 renal, 4.13 µM; with LOX IMVI melanoma it was 0.197 µM.

Take `O=C1C(=O)N(c2ccc(Cl)cc2)C(=O)C(=O)C1c1nc2ccccc2o1`: the TGI in the assay on SF-295 CNS, in the assay on HCC-2998 colon, in the assay with SK-OV-3 ovarian, with OVCAR-8 ovarian, in the assay on SNB-75 CNS and in the assay with COLO 205 colon was more than 100 µM in each case. Also, the TGI in the assay with UACC-257 melanoma, in the assay with NCI-H226 lung, in the assay with A498 renal and with LOX IMVI melanoma was more than 100 µM throughout.

In the case of `O=C(/C=C/c1ccc(Cl)cc1)c1ccccc(=O)c1O`, the TGI in the assay with SF-295 CNS was 16.3 µM; in the assay on HCC-2998 colon it was 8.29 µM; in the assay on SK-OV-3 ovarian, 16.6 µM; in the assay with OVCAR-8 ovarian it was more than 100 µM; in the assay on SNB-75 CNS it was 12.3 µM; in the assay with COLO 205 colon, 6.53 µM. Also, the TGI in the assay with UACC-257 melanoma came to 14.6 µM; with NCI-H226 lung it was 5.45 µM; in the assay with A498 renal, 36 µM; in the assay with LOX IMVI melanoma, 13 µM.
